In ChEMBL document CHEMBL1201862, “PubChem BioAssay data set” (2004):
Values joined by “and” are separate entries in the source; they are usually repeats but may differ in a detail not shown here. Equal values may be shown once.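 Cultured in 96-well plates, cells were exposed to test compound for 48 hours across five concentrations. Abbreviation: GI50, concentration required for 50% inhibition of growth.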 Active and inactive are the calls of the source. No stated cut-off is given here; in the data, active = GI50 up to about 1.1 µM and inactive = higher.

Experiments:
Assay in all cases: inhibition of tumour cell growth, NCI panel, 48 h
[1] = tested on: A498
[2] = tested on: BT-549
[3] = tested on: CAKI-1
[4] = tested on: HCT-116
[5] = tested on: HOP-92
[6] = tested on: KM12
[7] = tested on: LOX IMVI
[8] = tested on: M14
[9] = tested on: MCF7
[10] = tested on: MDA-MB-231
[11] = tested on: MDA-MB-435
[12] = tested on: Malme-3M
[13] = tested on: NCI-H23
[14] = tested on: OVCAR-3
[15] = tested on: SNB-19
[16] = tested on: T47D
[17] = tested on: UACC-257
[18] = tested on: UACC-62
[19] = tested on: UO-31
[20] = tested on: HCT-15

Row | SMILES | GI50 [1] | GI50 [2] | GI50 [3] | GI50 [4] | GI50 [5] | GI50 [6] | GI50 [7] | GI50 [8] | GI50 [9] | GI50 [10] | GI50 [11] | GI50 [12] | GI50 [13] | GI50 [14] | GI50 [15] | GI50 [16] | GI50 [17] | GI50 [18] | GI50 [19] | GI50 [20]
1 | C#CCCCOc1ncccn1 | > 100 µM (inactive) | > 100 µM (inactive) | > 100 µM (inactive) | > 100 µM (inactive) | > 100 µM (inactive) | > 100 µM (inactive) | > 100 µM (inactive) | > 100 µM (inactive) | > 100 µM (inactive) | > 100 µM (inactive) | > 100 µM (inactive) | > 100 µM (inactive) | > 100 µM (inactive) | > 100 µM (inactive) | > 100 µM (inactive) | > 100 µM (inactive) | > 100 µM (inactive) | > 100 µM (inactive) | > 100 µM (inactive) | 
2 | COc1ccc(CC2c3cc4c(cc3CCN2C)OCO4)c(C=O)c1OC (stereo not given) | > 100 µM (inactive) | > 100 µM (inactive) | 60.5 µM (inactive) | > 100 µM (inactive) | > 100 µM (inactive) | > 100 µM (inactive) | > 100 µM (inactive) | > 100 µM (inactive) | > 100 µM (inactive) | > 100 µM (inactive) | > 100 µM (inactive) | > 100 µM (inactive) | > 100 µM (inactive) | > 100 µM (inactive) | > 100 µM (inactive) | > 100 µM (inactive) | > 100 µM (inactive) | > 100 µM (inactive) | > 100 µM (inactive) | > 100 µM
3 | CCOC(=O)n1cncc1CC(NC(=O)Cc1c(C(=O)C=C(C)C)[nH]c2ccccc12)C(=O)OC (stereo not given) | 24.9 µM (inactive) | 20 µM (inactive) | 17.9 µM (inactive) | 27.9 µM (inactive) | 12 µM (inactive) | 19.3 µM (inactive) | 15.5 µM (inactive) | 15.6 µM (inactive) | 24.7 µM (inactive) | 15.5 µM (inactive) | 18.2 µM (inactive) | 17.2 µM (inactive) | 25.4 µM (inactive) | 17.7 µM (inactive) | 14.5 µM (inactive) | 2.8 µM (inactive) | 13.3 µM (inactive) | 20.3 µM (inactive) | 15.7 µM (inactive) | 19.1 µM
4 | COc1cc(C2c3cc4c(cc3OC(NNS(=O)(=O)c3ccc(C)cc3)C2C)OCO4)cc(OC)c1OC (stereo not given) | 1.26 µM (inactive) | 3.32 µM (inactive) | 1.68 µM (inactive) | 1.29 µM (inactive) | 2 µM (inactive) | 1.26 µM (inactive) | 1.87 µM (inactive) | 0.776 µM (active) | 1.48 µM (inactive) | 4.24 µM (inactive) | 0.294 µM (active) | 3.04 µM (inactive) | 4.8 µM (inactive) | 1.26 µM (inactive) | 3.58 µM (inactive) | 3.48 µM (inactive) | 3.21 µM (inactive) | 1.36 µM (inactive) | 5.14 µM (inactive) | 1.29 µM
5 | CN/N=C(/CCN1CCCC1)CC(c1ccccc1)c1c(O)c2ccccc2oc1=O (stereo not given) | > 100 µM (inactive) | > 100 µM (inactive) | > 100 µM (inactive) | > 100 µM (inactive) | 0.804 µM (active) | > 100 µM (inactive) | > 100 µM (inactive) | > 100 µM (inactive) | > 100 µM (inactive) | > 100 µM (inactive) | > 100 µM (inactive) | 39.4 µM (inactive) | > 96.4 µM (inactive) | > 100 µM (inactive) | > 100 µM (inactive) | 49.4 µM (inactive) | > 100 µM (inactive) | > 100 µM (inactive) | > 67.1 µM (inactive) | > 100 µM
6 | OCC(S)CS.[Bi] (stereo not given) | 27 µM (inactive) | 9.79 µM (inactive) | 11.8 µM (inactive) | 17.7 µM (inactive) | 23.7 µM (inactive) | 19.1 µM (inactive) | 20.7 µM (inactive) | 8.36 µM (inactive) | 18.5 µM (inactive) | 24.4 µM (inactive) | 15.2 µM (inactive) | 3.97 µM (inactive) | 17.1 µM (inactive) | 10.8 µM (inactive) | 13.7 µM (inactive) | 8.89 µM (inactive) | 13 µM (inactive) | 17.9 µM (inactive) | 16.7 µM (inactive) | 15 µM
7 | O=C1N/C(=N/N=C\C(O)C(O)C(O)C(O)CO)N/C1=C/c1ccc(Cl)cc1 (stereo not given) | > 100 µM (inactive) | > 100 µM (inactive) | > 100 µM (inactive) | > 100 µM (inactive) | > 100 µM (inactive) | > 100 µM (inactive) | > 100 µM (inactive) | > 100 µM (inactive) | > 100 µM (inactive) | > 100 µM (inactive) | > 100 µM (inactive) | 97.3 µM (inactive) | > 100 µM (inactive) | 43.6 µM (inactive) and 31.6 µM (inactive) | > 100 µM (inactive) | 49.7 µM (inactive) and 36.6 µM (inactive) | > 100 µM (inactive) |  | > 100 µM (inactive) | 76 µM and 50.6 µM
8 | CC1=C(C(=O)N(C)c2ccc(Cl)c(C(=O)OC(C)C)c2)SCCO1 | 74.3 µM (inactive) | 40.9 µM (inactive) | > 100 µM (inactive) | 59.2 µM (inactive) | > 100 µM (inactive) | 55 µM (inactive) | > 100 µM (inactive) | > 100 µM (inactive) | 66.5 µM (inactive) | > 100 µM (inactive) | 48.6 µM (inactive) | 72.3 µM (inactive) | 44.2 µM (inactive) | > 100 µM (inactive) | 74.6 µM (inactive) | 31.2 µM (inactive) | 43.3 µM (inactive) | 53.1 µM (inactive) | 27.2 µM (inactive) | 74 µM
9 | O=C(Cc1ccc(Cl)c(Cl)c1)NCCCN1CCN(CCCN2CCCCC2)CC1 | 16.4 µM (inactive) | 21.9 µM (inactive) | 20.4 µM (inactive) | 16.3 µM (inactive) | 11.1 µM (inactive) | 15.8 µM (inactive) | 14.1 µM (inactive) | 19.3 µM (inactive) | 18.5 µM (inactive) | 12 µM (inactive) | 1.9 µM (inactive) | 17.6 µM (inactive) | 19.8 µM (inactive) | 25.5 µM (inactive) | 26.9 µM (inactive) | 20.3 µM (inactive) | 5.26 µM (inactive) | 3.84 µM (inactive) | 1.84 µM (inactive) | 20.7 µM
10 | C[Si](C)(c1ccc(C(=O)O)cc1)c1ccc(C(=O)O)cc1 | > 100 µM (inactive) | > 100 µM (inactive) | > 100 µM (inactive) | > 100 µM (inactive) | > 100 µM (inactive) | > 100 µM (inactive) | > 100 µM (inactive) | > 100 µM (inactive) | > 100 µM (inactive) | > 100 µM (inactive) | > 100 µM (inactive) | > 100 µM (inactive) | > 100 µM (inactive) | > 100 µM (inactive) | > 100 µM (inactive) | > 100 µM (inactive) | > 100 µM (inactive) | > 100 µM (inactive) |  | > 100 µM
11 | CNC(=O)OCC1=C(COC(=O)NC)C(C)N(c2ccc(OC)cc2)C1 (stereo not given) | 0.351 µM (active) | > 100 µM (inactive) |  | > 100 µM (inactive) | > 100 µM (inactive) | > 100 µM (inactive) | > 100 µM (inactive) | 69.5 µM (inactive) | 50.6 µM (inactive) | > 100 µM (inactive) | > 100 µM (inactive) | > 100 µM (inactive) | 68.9 µM (inactive) | 43 µM (inactive) | > 100 µM (inactive) | 37.1 µM (inactive) | 36.7 µM (inactive) | 15.3 µM (inactive) | 41.6 µM (inactive) | > 100 µM
12 | c1ccc2c(c1)nc1n2CCSC1 | > 100 µM (inactive) | > 100 µM (inactive) | > 100 µM (inactive) | > 100 µM (inactive) | > 100 µM (inactive) | > 100 µM (inactive) | > 100 µM (inactive) | > 100 µM (inactive) | > 100 µM (inactive) | > 100 µM (inactive) | > 100 µM (inactive) |  | > 100 µM (inactive) | > 100 µM (inactive) | > 100 µM (inactive) | > 100 µM (inactive) | > 100 µM (inactive) | > 100 µM (inactive) | > 100 µM (inactive) | > 100 µM
13 | O=c1c2ccccc2nc2n1C(c1ccc([N+](=O)[O-])cc1)C2(c1ccccc1)c1ccccc1 (stereo not given) | > 100 µM (inactive) | > 100 µM (inactive) | > 100 µM (inactive) | > 100 µM (inactive) | > 100 µM (inactive) | > 100 µM (inactive) | > 100 µM (inactive) | > 100 µM (inactive) | 54.6 µM (inactive) | > 100 µM (inactive) | > 100 µM (inactive) | > 100 µM (inactive) | > 100 µM (inactive) | > 100 µM (inactive) | 14.5 µM (inactive) | > 100 µM (inactive) | > 100 µM (inactive) | > 100 µM (inactive) |  | > 100 µM
14 | COc1ccc2[nH]c3c(c2c1)CC(=O)N1CCCC(CC3O)C1 (stereo not given) | > 100 µM (inactive) | > 100 µM (inactive) | > 100 µM (inactive) | > 100 µM (inactive) | > 100 µM (inactive) | > 100 µM (inactive) | > 100 µM (inactive) |  | > 100 µM (inactive) | > 100 µM (inactive) | > 100 µM (inactive) | > 100 µM (inactive) | > 100 µM (inactive) |  | > 100 µM (inactive) | > 100 µM (inactive) | > 100 µM (inactive) | > 100 µM (inactive) | > 100 µM (inactive) | > 100 µM
15 | O=C(Nc1ccc(Cl)cc1C(F)(F)F)C(=O)Nn1c(S)nc2ccccc2c1=O | > 100 µM (inactive) | > 100 µM (inactive) | > 100 µM (inactive) | > 100 µM (inactive) | 3.99 µM (inactive) | > 100 µM (inactive) | > 100 µM (inactive) | > 100 µM (inactive) | > 100 µM (inactive) | > 100 µM (inactive) | > 100 µM (inactive) |  | > 100 µM (inactive) | > 100 µM (inactive) |  | > 100 µM (inactive) | > 100 µM (inactive) | > 100 µM (inactive) | > 100 µM (inactive) | > 100 µM
